Measured values published in patent EP3300715A1, “USE OF DIALKYLCARBONATES OF BRANCHED ALCOHOLS AS DISPERSION AGET” (BASF SE, priority 2016, dated 2018).

Assay: Pigment dispersion test: medium added dropwise to 10 g pigment until a paste forms; maximum % pigment in the medium
Assay type: physicochemical
Conditions: medium added dropwise to 10 g pigment (Eisenoxid, Titanoxid) until paste, no excess medium; compared with other media; shown in figure
Description: Es hat sich überraschend gezeigt, dass die erfindungsgemäß verwendeten Dialkylcarbonate gegenüber anderen Medien hervorragende Dispersionen mit Feststoffen bilden.
Das Experiment wurde wie folgt durchgeführt. Das Medium wurde tropfenweise zu 10 g Pigment (grau = Eisenoxid, dunkelgrau = Titanoxid), bis sich eine Paste gebildet hatte (kein Medium im Überschuss). Die folgende Rechnung entspricht der maximalen Menge Pigment in prozent, die in das jeweilige Medium gegeben werden kann: % Pigment = m(Pigment)/m(Pigment) + m(Medium) × 100 [formula]

In the case of CCCCCC(CCC)COC(=O)OCC(CCC)CCCCC (stereo not shown) [Di-(2-Propyl-1-heptyl)carbonat], the “Pigmentkonzentrationen (% Pigment, maximale Menge Pigment im Medium)” value is reported as “höchsten Pigmentkonzentrationen”.
